Measured values taken from patent publication EP0148283A1, “Novel penicillanic acid derivatives” (F. HOFFMANN-LA ROCHE & CO. Aktiengesellschaft, priority 1983, dated 1985).
Where a name gives a salt, the structure may show the parent alone.

Experiments:
Experiment in all cases: In vitro antibacterial activity, MIC by broth dilution in 96-well trays
Format in all cases: cell-based
S. faecalis = conditions: Enterococcus faecalis; S. faecalis C1
Experimental: (§1) The in vitro antibacterial activity of the following compounds:
(§2) The diluted agents are dispensed in 100 µl amounts into the wells of a 96-well tray and used immediately or frozen at -10 to -70°C until needed. Using an automated inoculator, 1.5 µl of a 10^-2 dilution of an overnight culture is added to each well of the tray. The tops of the trays are then sealed using transparent tape and incubated overnight at 37°C. The trays are examined with the aid of a viewer. The lowest concentration at which no growth is observed is considered to be the minimum inhibitory concentration (MIC). [formula] [formula] [formula] [formula] [formula] [formula] [formula] [formula] [formula] [formula] [formula]

S. pneumoniae = conditions: Streptococcus pneumoniae
Experimental: as §1, §2

S. pyogenes = conditions: Streptococcus pyogenes
Experimental: as §1, §2

P.aeruginosa = conditions: Pseudomonas aeruginosa
Experimental: as §1, §2

S. aureus = conditions: Staphylococcus aureus
Experimental: as §1, §2

SMILES: CC1(C)S[C@@H]2[C@H](N=CN3CCC(Cc4ncc[nH]4)CC3)C(=O)N2[C@H]1C(=O)O [Q, [2S-(2alpha,5alpha,6beta)]-6-[[[4-(1H-imidazol-2-yl-methyl)-1-piperidinyl]methylene]amino]-3,3-dimethyl-7-oxo-4-thia-1-azabicyclo[3.2.0]heptane-2-carboxylic acid hydrochloride]
- MIC (S. faecalis): 128 µg/mL
- MIC (S. pneumoniae; S. pneumoniae strain 6301): 1 µg/mL
- MIC (S. pneumoniae; S. pneumoniae strain 6302): 2 µg/mL
- MIC (S. pneumoniae; S. pneumoniae strain SC): 2 µg/mL
- MIC (S. pyogenes; S. pyogenes strain 4): 1 µg/mL
- MIC (S. pyogenes; S. pyogenes strain 503-782): 128 µg/mL
- MIC (P.aeruginosa; P.aeruginosa strain 503-56): 64 µg/mL
- MIC (P.aeruginosa; P.aeruginosa strain 503-820): 128 µg/mL
- MIC (P.aeruginosa; P.aeruginosa strain 5700): 0.125 µg/mL
- MIC (P.aeruginosa; P.aeruginosa strain 5712): > 128 µg/mL
- MIC (P.aeruginosa; P.aeruginosa strain 6148B): 128 µg/mL
- MIC (P.aeruginosa; P.aeruginosa strain 8710): 128 µg/mL
- MIC (P.aeruginosa; P.aeruginosa strain 8780): > 128 µg/mL
- MIC (P.aeruginosa; P.aeruginosa strain B): 0.25 µg/mL
- MIC (P.aeruginosa; P.aeruginosa strain POW 151): > 128 µg/mL
- MIC (P.aeruginosa; P.aeruginosa strain Stone 130): > 128 µg/mL
- MIC (S. aureus; S. aureus strain 1059B): 128 µg/mL
- MIC (S. aureus; S. aureus strain Giorgio): 8 µg/mL
- MIC (S. aureus; S. aureus strain Smith): 8 µg/mL

SMILES: CC1(C)S[C@@H]2[C@H](N=CN3CCC(CCCn4ccnc4CO)CC3)C(=O)N2[C@H]1C(=O)O [R, [2S-(2alpha,5alpha,6beta)]-6-[[[4-[3-[2-(hydroxy-methyl)-1H-imidazol-1-yl]propyl-1-piperidinyl]-methylene]amino]-3,3-dimethyl-7-oxo-4-thia-1-azabicyclo[3.2.0]heptane-2-carboxylic acid hydrochloride 1.1 molar hydrate]
- MIC (S. faecalis): 128 µg/mL
- MIC (S. pneumoniae; S. pneumoniae strain 6301): 1 µg/mL
- MIC (S. pneumoniae; S. pneumoniae strain 6302): 1 µg/mL
- MIC (S. pneumoniae; S. pneumoniae strain SC): 0.5 µg/mL
- MIC (S. pyogenes; S. pyogenes strain 4): 0.5 µg/mL
- MIC (S. pyogenes; S. pyogenes strain 503-782): 128 µg/mL
- MIC (P.aeruginosa; P.aeruginosa strain 503-56): > 128 µg/mL
- MIC (P.aeruginosa; P.aeruginosa strain 503-820): 128 µg/mL
- MIC (P.aeruginosa; P.aeruginosa strain 5700): > 128 µg/mL
- MIC (P.aeruginosa; P.aeruginosa strain 5712): > 128 µg/mL
- MIC (P.aeruginosa; P.aeruginosa strain 6148B): 128 µg/mL
- MIC (P.aeruginosa; P.aeruginosa strain 8710): > 128 µg/mL
- MIC (P.aeruginosa; P.aeruginosa strain 8780): > 128 µg/mL
- MIC (P.aeruginosa; P.aeruginosa strain B): 128 µg/mL
- MIC (P.aeruginosa; P.aeruginosa strain POW 151): > 128 µg/mL
- MIC (P.aeruginosa; P.aeruginosa strain Stone 130): > 128 µg/mL
- MIC (S. aureus; S. aureus strain 1059B): 64 µg/mL
- MIC (S. aureus; S. aureus strain Giorgio): 8 µg/mL
- MIC (S. aureus; S. aureus strain Smith): 8 µg/mL

SMILES: CN(C)C=Nc1nccn1CCCC1CCN(C=N[C@@H]2C(=O)N3[C@@H]2SC(C)(C)[C@@H]3C(=O)O)CC1 [S, [2S-(2alpha,5alpha,6beta)]-6-[[[4-[3-[2-[[(dimethylamino)methylene]amino]-1H-imidazol-1-yl]propyl]-1-piperidinyl]methylene]amino]-3,3-dimethyl-7-oxo-4-thia-1-azabicyclo[3.2.0]heptane-2-carboxylic acid 1.7 molar hydrochloride 2.6 molar hydrate]
- MIC (S. faecalis): 128 µg/mL
- MIC (S. pneumoniae; S. pneumoniae strain 6301): 2 µg/mL
- MIC (S. pneumoniae; S. pneumoniae strain 6302): 1 µg/mL
- MIC (S. pneumoniae; S. pneumoniae strain SC): 0.5 µg/mL
- MIC (S. pyogenes; S. pyogenes strain 4): 0.25 µg/mL
- MIC (S. pyogenes; S. pyogenes strain 503-782): 128 µg/mL
- MIC (P.aeruginosa; P.aeruginosa strain 503-56): > 128 µg/mL
- MIC (P.aeruginosa; P.aeruginosa strain 503-820): > 128 µg/mL
- MIC (P.aeruginosa; P.aeruginosa strain 5700): > 128 µg/mL
- MIC (P.aeruginosa; P.aeruginosa strain 5712): > 128 µg/mL
- MIC (P.aeruginosa; P.aeruginosa strain 6148B): > 128 µg/mL
- MIC (P.aeruginosa; P.aeruginosa strain 8710): > 128 µg/mL
- MIC (P.aeruginosa; P.aeruginosa strain 8780): > 128 µg/mL
- MIC (P.aeruginosa; P.aeruginosa strain B): > 128 µg/mL
- MIC (P.aeruginosa; P.aeruginosa strain POW 151): > 128 µg/mL
- MIC (P.aeruginosa; P.aeruginosa strain Stone 130): > 128 µg/mL
- MIC (S. aureus; S. aureus strain 1059B): 64 µg/mL
- MIC (S. aureus; S. aureus strain Giorgio): 8 µg/mL
- MIC (S. aureus; S. aureus strain Smith): 8 µg/mL
